Measured values: PubChem BioAssay (NCI)
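Dose response: 5 concentrations. Exposure: 48 h. Format: 96-well plates. Endpoint: linear interpolation; highest concentration if not reached. Here, GI50 denotes the concentration required for 50% inhibition of growth. TGI marks complete inhibition of growth.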

How the values were obtained:
Experiment in all cases: NCI tumour cell line growth inhibition, 48 h
[1] = tested on: EKVX NSCLC
[2] = tested on: OVCAR-3 ovarian
[3] = tested on: SF-268 CNS
[4] = tested on: HOP-92 NSCLC
[5] = tested on: SNB-19 CNS
[6] = tested on: SNB-75 CNS
[7] = tested on: HCT-116 colon
[8] = tested on: SK-MEL-28 melanoma
[9] = tested on: NCI-H23 lung
[10] = tested on: MDA-MB-231 breast
[11] = tested on: NCI/ADR-RES ovarian
[12] = tested on: K-562 leukemia
[13] = tested on: CCRF-CEM leukemia
[14] = tested on: U251 CNS
[15] = tested on: OVCAR-5 ovarian
[16] = tested on: TK-10 renal
[17] = tested on: NCI-H460 lung
[18] = tested on: RXF 393 renal
[19] = tested on: LOX IMVI melanoma
[20] = tested on: SK-OV-3 ovarian
[21] = tested on: HCC-2998 colon
[22] = tested on: NCI-H226 lung
[23] = tested on: DU-145 prostate
[24] = tested on: SF-539 CNS
[25] = tested on: HL-60(TB) leukemia
[26] = tested on: UACC-62 melanoma
[27] = tested on: SN12C renal
[28] = tested on: SK-MEL-5 melanoma
[29] = tested on: MALME-3M melanoma
[30] = tested on: A498 renal
[31] = tested on: M14 melanoma
[32] = tested on: A549 NSCLC
[33] = tested on: NCI-H522 lung
[34] = tested on: HS 578T breast
[35] = tested on: UACC-257 melanoma
[36] = tested on: SR leukemia
[37] = tested on: SW-620 colon
[38] = tested on: OVCAR-8 ovarian
[39] = tested on: SF-295 CNS
[40] = tested on: CAKI-1 renal
[41] = tested on: KM12 colon
[42] = tested on: BT-549 breast
[43] = tested on: ACHN renal
[44] = tested on: SK-MEL-2 melanoma
[45] = tested on: RPMI-8226 leukemia
[46] = tested on: MDA-MB-435
[47] = tested on: MOLT-4 leukemia
[48] = tested on: HOP-62 NSCLC
[49] = tested on: COLO 205 colon
[50] = tested on: 786-0 renal
[51] = tested on: HCT-15 colon
[52] = tested on: T-47D breast
[53] = tested on: IGROV1 ovarian
[54] = tested on: OVCAR-4 ovarian
[55] = tested on: MCF7 breast
[56] = tested on: PC-3 prostate
[57] = tested on: UO-31 renal
[58] = tested on: HT29 colon

`CCCCCCCCCCCC1=NC(C)(C)CN1C(C)C` gave a GI50 [1] of 6.55 µM, a TGI [1] of 21.1 µM and a GI50 [2] of 1.94 µM. It also gave a TGI [2] of 6.14 µM, a GI50 [3] of 5.51 µM and a TGI [3] of 18.2 µM. The GI50 [4] was 1.19 µM, the TGI [4] was 5.17 µM and the GI50 [5] was 11.3 µM. It also gave a TGI [5] of 23.4 µM, a GI50 [6] of 6.04 µM and a TGI [6] of 19.2 µM. For the same compound, the GI50 [7] was 2.83 µM, the TGI [7] was 10.4 µM and the GI50 [8] was 1.78 µM. For the same compound, the TGI [8] was 3.37 µM, the GI50 [9] was 2.98 µM and the TGI [9] was 11.3 µM. The GI50 [10] was 3.67 µM, the TGI [10] was 14 µM and the GI50 [11] was 3.63 µM. It also gave a TGI [11] of 13.4 µM, a GI50 [12] of 1.94 µM and a TGI [12] of 5.82 µM. It also gave a GI50 [13] of 2.7 µM, a TGI [13] of 10.1 µM and a GI50 [14] of 3.4 µM. It also gave a TGI [14] of 12.8 µM, a GI50 [15] of 4.14 µM and a TGI [15] of 16.1 µM. The GI50 [16] was 4.02 µM, the TGI [16] was 16.1 µM and the GI50 [17] was 3.22 µM. The TGI [17] was 9.28 µM, the GI50 [18] was 2.17 µM and the TGI [18] was 5.33 µM. The GI50 [19] was 2.32 µM, the TGI [19] was 6.85 µM and the GI50 [20] was 7.51 µM. It also gave a TGI [20] of 20 µM, a GI50 [21] of 1.71 µM and a TGI [21] of 3.27 µM. It also gave a GI50 [22] of 6.16 µM, a TGI [22] of 22 µM and a GI50 [23] of 5.46 µM. It also gave a TGI [23] of 17.9 µM, a GI50 [24] of 2.14 µM and a TGI [24] of 4.41 µM. The GI50 [25] was 2.14 µM, the TGI [25] was 4.55 µM and the GI50 [26] was 1.75 µM. It also gave a TGI [26] of 3.54 µM, a GI50 [27] of 4.04 µM and a TGI [27] of 16.7 µM. For the same compound, the GI50 [28] was 2.05 µM, the TGI [28] was 4.34 µM and the GI50 [29] was 1.92 µM. It also gave a TGI [29] of 4.32 µM, a GI50 [30] of 4.78 µM and a TGI [30] of 19.3 µM. For the same compound, the GI50 [31] was 1.89 µM, the TGI [31] was 3.57 µM and the GI50 [32] was 3.71 µM. The TGI [32] was 14.6 µM, the GI50 [33] was 2.65 µM and the TGI [33] was 10.8 µM. It also gave a GI50 [34] of 2.81 µM, a TGI [34] of 13.1 µM and a GI50 [35] of 2.49 µM. It also gave a TGI [35] of 6.02 µM, a GI50 [36] of 1.71 µM and a TGI [36] of 4.32 µM. The GI50 [37] was 1.85 µM, the TGI [37] was 3.87 µM and the GI50 [38] was 4.35 µM. It also gave a TGI [38] of 16.3 µM, a GI50 [39] of 3.05 µM and a TGI [39] of 10.7 µM. It also gave a GI50 [40] of 2.68 µM, a TGI [40] of 14 µM and a GI50 [41] of 1.94 µM. The TGI [41] was 3.96 µM, the GI50 [42] was 9.22 µM and the TGI [42] was 23.4 µM. For the same compound, the GI50 [43] was 4.15 µM, the TGI [43] was 15.7 µM and the GI50 [44] was 3.2 µM. The TGI [44] was 10 µM, the GI50 [45] was 1.44 µM and the TGI [45] was 3.66 µM. The GI50 [46] was 2 µM, the TGI [46] was 5.33 µM and the GI50 [47] was 2.67 µM. For the same compound, the TGI [47] was 7.44 µM, the GI50 [48] was 4.35 µM and the TGI [48] was 16.2 µM. It also gave a GI50 [49] of 1.77 µM, a TGI [49] of 3.15 µM and a GI50 [50] of 3.57 µM. The TGI [50] was 13 µM, the GI50 [51] was 2.63 µM and the TGI [51] was 8.76 µM. The GI50 [52] was 2.9 µM, the TGI [52] was 8.73 µM and the GI50 [53] was 1.64 µM. It also gave a TGI [53] of 4.53 µM, a GI50 [54] of 4.29 µM and a TGI [54] of 15.9 µM. It also gave a GI50 [55] of 2.81 µM, a TGI [55] of 8.68 µM and a GI50 [56] of 2.12 µM. For the same compound, the TGI [56] was 11.1 µM, the GI50 [57] was 2.75 µM and the TGI [57] was 12.5 µM.
Work on `COC(=O)/C(=C(/C)c1ccco1)P(=O)(OC)OC` yielded a TGI [1] of over 100 µM, a TGI [2] of over 100 µM and a TGI [3] of over 100 µM. For the same compound, the TGI [4] was over 100 µM, the TGI [5] was over 100 µM and the TGI [6] was over 100 µM. The TGI [7] was over 100 µM, the TGI [8] was over 100 µM and the TGI [9] was over 100 µM. It also gave a TGI [10] of over 100 µM, a TGI [11] of over 100 µM and a TGI [13] of over 100 µM. The TGI [14] was over 100 µM, the TGI [15] was over 100 µM and the TGI [16] was over 100 µM. It also gave a TGI [18] of over 100 µM, a TGI [19] of over 100 µM and a TGI [20] of over 100 µM. The TGI [21] was over 100 µM, the TGI [22] was over 100 µM and the TGI [23] was over 100 µM. For the same compound, the TGI [24] was over 100 µM, the TGI [58] was over 100 µM and the TGI [26] was over 100 µM. For the same compound, the TGI [27] was over 100 µM, the TGI [28] was over 100 µM and the TGI [29] was over 100 µM. The TGI [30] was over 100 µM, the TGI [31] was over 100 µM and the TGI [32] was over 100 µM. It also gave a TGI [33] of over 100 µM, a TGI [34] of over 100 µM and a TGI [35] of over 100 µM. It also gave a TGI [36] of over 100 µM, a TGI [37] of over 100 µM and a TGI [38] of over 100 µM. For the same compound, the TGI [39] was over 100 µM, the TGI [40] was over 100 µM and the TGI [41] was over 100 µM. For the same compound, the TGI [42] was over 100 µM, the TGI [43] was over 100 µM and the TGI [44] was over 100 µM. For the same compound, the TGI [45] was over 100 µM, the TGI [46] was over 100 µM and the TGI [47] was over 100 µM. The TGI [48] was over 100 µM, the TGI [49] was over 100 µM and the TGI [50] was over 100 µM. The TGI [51] was over 100 µM, the TGI [52] was over 100 µM and the TGI [53] was over 100 µM. It also gave a TGI [54] of over 100 µM, a TGI [55] of over 100 µM and a TGI [56] of over 100 µM.
